Consider two compounds from patent publication US8841277B2, “Methods for treating non-small cell lung cancer using 5-azacytidine” (Celgene Corporation, priority 2009, dated 2014).

In data set [1] the test system is NSCLC cell lines. In words: Cell viability dose-response profiles, all cell lines. Type of data set: cell-based. Conditions: 72 hours; dose range. The method, then:
Certain NSCLC cell lines (H460, H1299, A549, and H1975) were purchased from American Type Culture Collection (ATCC; Manassas, Va.). The H23NSCLC cell line was obtained from the National Cancer Institute (NCI; Bethesda, Md.). Cell lines were cultured in their respective media, as recommended by ATCC and NCI. AZA was manufactured at Aptuit (Greenwich, Conn.) for Celgene (Summit, N.J.), while DAC was purchased from Sigma-Aldrich (St. Louis, Mo.). In all experiments, cells were seeded 24 hours before drug treatment and incubated at 37° C./5% CO2, For cell viability assays, H460, H1299, A549, H23, and H1975 cells were seeded in triplicate at 1×10^3, 1×10^3, 1×10^3, 4×10^3, and 4×10^3 cells per well, respectively, in 96-well plates, using 200 μL of medium per well. Fresh drug was added every 24 hours by replacing medium with drug-containing medium. […]
(§1) Cell viability was assessed using the CyQuant assay (Life Technologies Corporation; Carlsbad, Calif.). Fluorescence was measured with a spectrophotometer (Molecular Devices; Sunnyvale, Calif.), and EC50 values were calculated in Prism® version 5.01 (GraphPad Software, Inc.; La Jolla, Calif.), using results from three independent experiments.
The six data sets represent calculations of EC50 values from raw data using Prism®. The standard deviation among the three independent experiments was determined at each drug concentration. […]

The conditions of data set [2]: administered at 15 mg/m^2; cited from earlier work.
Data set [3] concerns H1975 cells. In words: Cell viability (CyQuant assay), H1975. Conditions: 72 hours; for HillSlope / LogIC50 / IC50: H1975 viability, best-fit value; for EC50 / IC50: Homo sapiens, NCI-H1975; for EC50: H1975, read-out: EC50 of effect on viability. The class given is cell-based. The method, then: (§2) Certain NSCLC cell lines (H460, H1299, A549, and H1975) were purchased from American Type Culture Collection (ATCC; Manassas, Va.). The H23NSCLC cell line was obtained from the National Cancer Institute (NCI; Bethesda, Md.). Cell lines were cultured in their respective media, as recommended by ATCC and NCI. AZA was manufactured at Aptuit (Greenwich, Conn.) for Celgene (Summit, N.J.), while DAC was purchased from Sigma-Aldrich (St. Louis, Mo.). In all experiments, cells were seeded 24 hours before drug treatment and incubated at 37° C./5% CO2, For cell viability assays, H460, H1299, A549, H23, and H1975 cells were seeded in triplicate at 1×10^3, 1×10^3, 1×10^3, 4×10^3, and 4×10^3 cells per well, respectively, in 96-well plates, using 200 μL of medium per well. Fresh drug was added every 24 hours by replacing medium with drug-containing medium. For all other assays, cells were seeded at 0.6-1.2×10^5 cells per well, in 6-well plates, using 4 mL of medium per well, with fresh drug added directly to the medium every 24 hours.
as §1
(§3) The six data sets represent calculations of EC50 values from raw data using Prism®. The standard deviation among the three independent experiments was determined at each drug concentration. For some of the cell lines, Prism® was not able to calculate the EC50 for DAC. For those curves that an EC50 was available, the SE (Std. Error) was acceptable (SE of the logEC50 should be less than 0.5), meaning that the standard errors were not too large. The 95% Confidence Intervals for the EC50 were considered as a measure of error.

Data set [4] relates to H460 cells. In words: Cell viability (CyQuant assay), H460. The class given is cell-based. As to conditions: for HillSlope / LogIC50 / IC50: H460 viability, best-fit value. The protocol: as §2, §1, §3
Data set [5] has as its system NSCLC cells. In words: Western analysis of DNA damage and cell death markers, summary. Type of data set: cell-based. Conditions: H460, A549, H1299 studies. The protocol:
These studies also examined apoptosis using an assay for PARP cleavage. Cells studied included H460, A549, and H1299 cells.
For western analyses of protein levels, cells were washed with PBS and lysed with RIPA buffer (Cell Signaling Technology, Inc.; Danvers, Mass.) containing 350 mM NaCl and 0.1% SDS. Cell lysates were sonicated with two 5-second bursts under low amplitude (20%) using the Digital Sonic Dismembrator (Thermo Fisher Scientific, Inc.; Waltham, Mass.). Proteins were separated on 4-12% Bis-Tris NuPAGE gels (Life Technologies Corporation) and transferred to nitrocellulose membranes. DNMT1, phos-Histone-H2AX(Ser139), total Histone-H2AX, cleaved-PARP, p21, p53, and alpha-tubulin were detected using the Li-Cor Odyssey imaging system (Li-Cor Biotechnology; Lincoln, Nebr.), following incubation with the appropriate primary and secondary antibodies. The phos-Histone-H2AX(Ser139), cleaved-PARP, and p21 antibodies were from Cell Signaling Technology, Inc. The p53 and total Histone-H2AX (C-20) antibodies were from Santa Cruz Biotechnology, Inc. (Santa Cruz, Calif.). The alpha-tubulin and DNMT1 antibodies were purchased from EMD Chemicals, Inc. (Gibbstown, N.J.) and Abcam, Inc. (Cambridge, Mass.), respectively. The goat anti-Rabbit IRDye 680, goat anti-Mouse IRDye 800CW, and donkey anti-Goat IRDye 800CW secondary antibodies were from Li-Cor Biotechnology.

[6] abbreviates: Homo sapiens, NCI-H460, 72 hours.

Read-outs that look alike come from different tables or passages of the source.

Usually EC50 stands for the midpoint of the concentration-response curve. By IC50 is commonly meant the point on the concentration scale where inhibition reaches its midpoint.

For `Nc1ncn([C@H]2C[C@H](O)[C@@H](CO)O2)c(=O)n1` [DAC, 5-aza-2′-deoxycytidine], in data set [1], the “Viability profile at high doses” value is “cytostatic activity at high doses”. Also, in data set [2], the Plasma levels is 0.5 µM. For the same compound, in data set [3], the HillSlope is listed as −0.2958, the LogIC50 is 2.452, the EC50 is greater than 25 µM and the IC50 stood at 283 µM. Besides, in data set [4] (72 hours), the HillSlope is −0.3814 and the LogIC50 was found to be 2.053. Besides, in data set [4] (Homo sapiens, NCI-H460, H460, 72 hours, read-out: EC50 of effect on viability), the EC50 was greater than 25000 nM. In data set [4] (setting [6]), half-maximal inhibition (IC50) was put at 113 µM.
Take `Nc1ncn([C@@H]2O[C@H](CO)[C@@H](O)[C@H]2O)c(=O)n1` [AZA, 4-amino-1-β-D-ribofuranosyl-1,3,5-triazin-2(1H)-one]: the “Viability profile at high doses” value in data set [1] is given as “cytotoxic activities at high doses”. The “Induction of DNA damage and cell death markers, concentration comparison” value in data set [5] was “at lower concentrations than DAC”. Moreover, the figures for the HillSlope in data set [3] and in data set [4] (72 hours) were −0.6352 and −0.8940, respectively. The figures for the LogIC50 in data set [3] and in data set [4] (72 hours) were 0.8897 and 0.2413, respectively. For the same compound, the EC50 in data set [3] was determined as 7.8 µM; in data set [4] (H460, 72 hours, read-out: EC50 of effect on viability), 1700 nM; in data set [4] (Homo sapiens, NCI-H460, 72 h, H460, read-out: EC50 of effect on viability), 1240 nM. The IC50 in data set [3] was 7.76 µM; in data set [4] (setting [6]) it was 1.74 µM.
